One assay addresses Recombinant Btk (Homo sapiens (Human), UniProt Q06187). The assay can be described thus: Btk kinase assay (TR-FRET). (TR-FRET usually uses a lanthanide donor and a delayed reading to cut background.)
For assay [1], the target named is phosphorylated Btk at Tyr223 in Ramos cells (Homo sapiens (Human), UniProt Q06187). The assay can be described thus: Btk pY223 cellular assay (HTRF) in Ramos cells. The class given is cell-based. The settings on record: 1 hour compound incubation, pervanadate or Na3VO4 stimulation.
Description: Btk pY223 cellular assay is a HTRF based assay intended to determine the endogenous levels of phosphorylated Btk at Tyr223.
Briefly, Ramos cells were serum starved in 0.5% FBS-containing RPMI1640 for 2 hours. Following starvation, the cells were incubated with compounds to be detected at various concentrations in a CO2 incubator for 1 hour. After incubation, cells were stimulated with 1 mM pervanadate (PV) or Na3VO4 (OV) for 20 min. Then, the cells were spinned down and lysed with 1× lysis buffer at RT for 10 min (4× lysis buffer supplied in the kit). During the incubation, 1× antibody mix was prepared by diluting anti-Btk-d2 and anti-pBtk-K in detection buffer (supplied in the kit). […] After that, 18 ul of cell lysate was transferred to the assay plate pre-loaded with antibody solution. After mixing gently and spinning briefly, the plate was sealed up and kept in dark at RT for 18 hours. […] IC50 values were calculated with GraphPad Prism software using the sigmoidal dose-response function.

Counter-ions that a name gives are not always drawn. Like-named read-outs stand apart in the source and are kept apart here.

Sequence of phosphorylated Btk at Tyr223 in Ramos cells (Q06187 whole entry): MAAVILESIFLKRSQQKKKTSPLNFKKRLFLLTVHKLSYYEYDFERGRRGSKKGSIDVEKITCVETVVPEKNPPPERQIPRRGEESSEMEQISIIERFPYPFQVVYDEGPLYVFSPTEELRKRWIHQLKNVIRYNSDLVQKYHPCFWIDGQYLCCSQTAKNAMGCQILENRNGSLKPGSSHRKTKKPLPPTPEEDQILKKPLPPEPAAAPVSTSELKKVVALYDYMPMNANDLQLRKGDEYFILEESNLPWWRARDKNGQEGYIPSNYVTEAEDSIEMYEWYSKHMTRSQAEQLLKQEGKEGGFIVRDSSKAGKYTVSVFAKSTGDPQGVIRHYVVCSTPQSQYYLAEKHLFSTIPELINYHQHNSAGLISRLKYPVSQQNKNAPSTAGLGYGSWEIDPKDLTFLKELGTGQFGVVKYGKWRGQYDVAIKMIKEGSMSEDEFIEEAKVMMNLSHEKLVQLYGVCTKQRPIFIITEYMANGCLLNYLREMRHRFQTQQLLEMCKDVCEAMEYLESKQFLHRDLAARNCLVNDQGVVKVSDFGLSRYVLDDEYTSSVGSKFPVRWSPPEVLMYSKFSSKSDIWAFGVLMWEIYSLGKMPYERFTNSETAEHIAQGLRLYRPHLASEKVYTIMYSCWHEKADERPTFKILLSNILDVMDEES
Sequence of Recombinant Btk (Q06187 whole entry): as above

As usually defined, the IC50 is the concentration that inhibits the measured activity by half. For `CN(C)C/C=C/C(=O)N1CCC(C2CCNc3c(C(N)=O)c(-c4ccc(Oc5ccccc5)cc4)nn32)CC1` (single isomer, unassigned) [Compound 171, (R or S) (E)-7-(1-(4-(Dimethylamino)but-2-enoyl)piperidin-4-yl)-2-(4-phenoxyphenyl)-4,5,6,7-tetrahydropyrazolo-[1,5-a]pyrimidine-3-carboxamide], the IC50 on Recombinant Btk came to 1.4 nM; in assay [1], 10.9 nM.

For `C=CC(=O)N1CC(C2CCNc3c(C(N)=O)c(-c4ccc(Oc5ccccc5C#N)cc4)nn32)C1` (stereo not drawn) [Compound 135, 7-(1-acryloylazetidin-3-yl)-2-(4-(2-cyanophenoxy)phenyl)-4,5,6,7-tetrahydropyrazolo[1,5-a]pyrimidine-3-carboxamide], the IC50 in assay [1] was found to be 2.4 nM.

In assay [1], `C=CC(=O)Nc1ccccc1C1CCNc2c(C(N)=O)c(-c3ccc(Cl)c(F)c3)nn21` (stereo not drawn) [Compound 154, 7-(2-Acrylamidophenyl)-2-(4-chloro-3-fluorophenyl)-4,5,6,7-tetrahydropyrazolo[1,5-a]pyrimidine-3-carboxamide] gave an IC50 of 1.5 nM.

`C=CC(=O)NCC1(C)CCNc2c(C(N)=O)c(-c3ccc(Oc4ccccc4)cc3)nn21` (stereo not drawn) [Compound 143, 7-(acrylamidomethyl)-7-methyl-2-(4-phenoxyphenyl)-4,5,6,7-tetrahydropyrazolo[1,5-a]pyrimidine-3-carboxamide] had an IC50 in assay [1] of 4.1 nM.

Compound `C=CC(=O)Nc1ccccc1C1CCNc2c(C(N)=O)c(-c3ccc(Oc4ccc(F)cc4)cc3)nn21` (stereo not drawn) [Compound 12, 7-(2-Acrylamidophenyl)-2-(4-(4-fluorophenoxyl)phenyl)-4,5,6,7-tetrahydropyrazolo[1,5-a]pyrimidine-3-carboxamide] came in with an IC50 in assay [1] of 23.6 nM.

In assay [1], `C=CC(=O)Nc1ccccc1C1CCNc2c(C(N)=O)c(-c3ccc(F)c(Br)c3)nn21` (stereo not drawn) [Compound 152, 7-(2-Acrylamidophenyl)-2-(3-bromo-4-fluorophenyl)-4,5,6,7-tetrahydropyrazolo[1,5-a]pyrimidine-3-carboxamide] gave an IC50 of 1.8 nM.

`C=CC(=O)Nc1ccc2c(c1)c(=O)[nH]c1c(C(N)=O)c(-c3ccc(Oc4ccccc4)cc3)nn12` [Compound 78, 7-Acrylamido-5-oxo-2-(4-phenoxyphenyl)-4,5-dihydropyrazolo[1,5-a]quinazoline-3-carboxamide]: in assay [1], 140 nM corresponded to half-maximal inhibition (IC50).

For the compound `C=CC(=O)N1CC[C@H]2Nc3c(C(N)=O)c(-c4ccc(Oc5ccccc5)cc4)nn3C[C@H]2C1` [Compound 31], at Recombinant Btk (read-out: IC50 (nM) Btk, recombinant Btk, 1 hour pre-incubation, ATP at Km), the IC50 was determined as 15 nM.

`C=CC(=O)N1CC(C2CCNc3c(C(N)=O)c(-c4ccc(Oc5ccccc5)c(Cl)c4)nn32)C1` (stereo not drawn) [Compound 139, 7-(1-acryloylazetidin-3-yl)-2-(3-chloro-4-phenoxyphenyl)-4,5,6,7-tetrahydropyrazolo[1,5-a]pyrimidine-3-carboxamide] gave an IC50 in assay [1] of 3.1 nM.

In assay [1], `COc1cc(-c2nn3c(c2C(N)=O)NCCC3c2ccccc2NC(=O)/C=C/CN(C)C)ccc1C` (stereo not drawn) [Compound 165, (E)-7-(2-(4-(Dimethylamino)but-2-enamido)phenyl)-2-(3-methoxy-4-methylphenyl)-4,5,6,7-tetrahydropyrazolo[1,5-a]pyrimidine-3-carboxamide] registered an IC50 of 19.1 nM.

As for `CN(C)CC#CC(=O)N1CCC([C@@H]2CCNc3c(C(N)=O)c(-c4ccc(Oc5ccccc5)cc4)nn32)CC1` [Compound 188, (S)-7-(1-(4-(Dimethylamino)but-2-ynoyl)piperidin-4-yl)-2-(4-phenoxyphenyl)-4,5,6,7-tetrahydropyrazolo-[1,5-a]pyrimidine-3-carboxamide], the IC50 in assay [1] worked out at 8.5 nM.

For the compound `C=CC(=O)Nc1ccccc1C1CCNc2c(C(N)=O)c(-c3ccc(OCc4ccccn4)c(Cl)c3)nn21` (stereo not drawn) [Compound 146, 7-(2-Acrylamido-phenyl)-2-(3-chloro-4-(pyridin-2-ylmethoxy)phenyl)-4,5,6,7-tetrahydropyrazolo[1,5-a]pyrimidine-3-carboxamide], in assay [1], the IC50 came to 4 nM.

`C=CC(=O)N1CC2(CNc3c(C(N)=O)c(-c4ccc(Oc5ccccc5)cc4)nn32)C1` [Compound 46, 1-Acryloyl-6′-(4-phenoxyphenyl)-1′,2′-dihydrospiro[azetidine-3,3′-imidazo[1,2-b]pyrazole]-7′-carboxamide] registered an IC50 in assay [1] of 22.6 nM.

Compound `NC(=O)c1c(-c2ccc(Oc3ccccc3)cc2)nn2c1NCC[C@H]2C1CCN(C(=O)CCCl)CC1` [Compound 177, (S)-7-(1-(3-chloropropanoyl)piperidin-4-yl)-2-(4-phenoxy-phenyl)-4,5,6,7-tetrahydropyrazolo-[1,5-a]pyrimidine-3-carboxamide] came in with an IC50 in assay [1] of 3.9 nM.

Regarding `C=CC(=O)Nc1ccc2c(c1)CC(=O)Nc1c(C(N)=O)c(-c3ccc(Oc4ccccc4)cc3)nn1-2` [Compound 75, 8-Acrylamido-5-oxo-2-(4-phenoxyphenyl)-5,6-dihydro-4H-benzo[f]pyrazolo[1,5-a][1,3]diazepine-3-carboxamide], half-maximal inhibition in assay [1] (IC50) required 223 nM.

In turn, `C=CC(=O)N(C)CC1CCNc2c(C(N)=O)c(-c3ccc(Oc4ccccc4)cc3)nn21` (stereo not drawn) [Compound 35] gave an IC50 in assay [1] of 7.9 nM.

The compound `CCC#CC(=O)N1CCC([C@@H]2CCNc3c(C(N)=O)c(-c4ccc(Oc5ccccc5)cc4)nn32)CC1` [Compound 186, (S)-7-(1-(Pent-2-ynoyl)piperidin-4-yl)-2-(4-phenoxyphenyl)-4,5,6,7-tetrahydropyrazolo-[1,5-a]pyrimidine-3-carboxamide] showed an IC50 in assay [1] of 10.3 nM.

Turning to `C=CC(=O)N1CCC2(CCNc3c(C(N)=O)c(-c4ccc(Oc5ccccc5)cc4)nn32)CC1` [Compound 43, 1-Acryloyl-2′-(4-phenoxyphenyl)-5′,6′-dihydro-4′H-spiro[piperidine-4,7′-pyrazolo[1,5-a]pyrimidine]-3′-carboxamide], the IC50 in assay [1] amounted to 75.8 nM.

As for `C=CC(=O)N1CC(C2CCNc3c(C(N)=O)c(-c4ccc(Oc5ccc(Cl)c(Cl)c5)cc4)nn32)C1` (stereo not drawn) [Compound 132, 7-(1-acryloylazetidin-3-yl)-2-(4-(3,4-dichlorophenoxy)phenyl)-4,5,6,7-tetrahydropyrazolo[1,5-a]pyrimidine-3-carboxamide], the IC50 in assay [1] is 6.2 nM.

`C=CC(=O)N1CC(C2CCNc3c(C(N)=O)c(-c4ccc(OCc5ccccc5)cc4)nn32)C1` (stereo not drawn) [Compound 104, 7-(1-acryloylazetidin-3-yl)-2-(4-(benzyloxy)phenyl)-4,5,6,7-tetrahydropyrazolo-[1,5-a]pyrimidine-3-carboxamide]: 20.6 nM corresponded to half-maximal inhibition in assay [1] (IC50).

In turn, `NC(=O)c1c(-c2ccc(Oc3ccccc3)cc2)nn2c1NCC[C@H]2C1CCN(C(=O)C#CCN2CCCC2)CC1` [Compound 187, (S)-2-(4-Phenoxyphenyl)-7-(1-(4-(pyrrolidin-1-yl)but-2-ynoyl)piperidin-4-yl)-4,5,6,7-tetrahydropyrazolo-[1,5-a]pyrimidine-3-carboxamide] gave an IC50 in assay [1] of 7.3 nM.

Compound `CN(C)C/C=C/C(=O)N1CCc2c([nH]c3c(C(N)=O)c(-c4ccc(Oc5ccccc5)cc4)nn23)C1` [Compound 64, (E)-6-(4-(Dimethylamino)but-2-enoyl)-2-(4-phenoxyphenyl)-5,6,7,8-tetrahydro-4H-pyrazolo[1′,5′:1,2]imidazo[4,5-c]pyridine-3-carboxamide trifluoroacetate] showed a half-inhibitory concentration (IC50) in assay [1] of 4.8 nM.

`CC#CC(=O)N1CC(C2CCNc3c(C(N)=O)c(-c4ccc(Oc5ccccc5)cc4)nn32)C1` (stereo not drawn) [Compound 184, 7-(1-(But-2-ynoyl)azetidin-3-yl)-2-(4-phenoxyphenyl)-4,5,6,7-tetrahydropyrazolo-[1,5-a]pyrimidine-3-carboxamide] yielded an IC50 in assay [1] of 6.7 nM.
